Laboratory results as given in ChEMBL document CHEMBL1128914, “Suppression of morphine and cocaine self-administration in rats by a mixed mu antagonist-kappa agonist (N-CBM-TAMO) and a long-acting selective D1 antagonist (AS-300)” (Bioorg Med Chem Lett, 1996).

Key:
Mus musculus = assay: Compound was tested for its activity using mouse writhing assay after icv administration.; type: functional
Mu-type opioid receptor = Mu-type opioid receptor (Bos taurus, UniProt P79350); assay: Compound was tested for binding activity against mu opioid receptor in bovine striatal membranes using 0.25 nM [3H]DAMGO as the radioligand.; type: cell membranes, Striatum, Membrane
Sequence of Mu-type opioid receptor (P79350 whole entry): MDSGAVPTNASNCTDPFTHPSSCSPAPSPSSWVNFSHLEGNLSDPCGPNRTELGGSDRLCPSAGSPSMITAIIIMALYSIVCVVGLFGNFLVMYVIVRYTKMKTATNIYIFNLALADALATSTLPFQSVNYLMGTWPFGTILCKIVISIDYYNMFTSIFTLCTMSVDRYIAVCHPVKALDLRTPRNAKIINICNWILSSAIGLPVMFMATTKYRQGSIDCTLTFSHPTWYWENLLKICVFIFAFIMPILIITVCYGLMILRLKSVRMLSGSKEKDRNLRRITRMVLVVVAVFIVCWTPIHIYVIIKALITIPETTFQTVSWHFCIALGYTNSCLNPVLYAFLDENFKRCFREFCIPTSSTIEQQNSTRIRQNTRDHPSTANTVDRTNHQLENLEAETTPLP

D(2) dopamine receptor = D(2) dopamine receptor (Rattus norvegicus, UniProt P61169); assay: Compound was tested for binding affinity against Dopamine receptor D2 using 10 nM [3H]N-methyl-spiperone as the radioligand.
Sequence of D(2) dopamine receptor (P61169 whole entry): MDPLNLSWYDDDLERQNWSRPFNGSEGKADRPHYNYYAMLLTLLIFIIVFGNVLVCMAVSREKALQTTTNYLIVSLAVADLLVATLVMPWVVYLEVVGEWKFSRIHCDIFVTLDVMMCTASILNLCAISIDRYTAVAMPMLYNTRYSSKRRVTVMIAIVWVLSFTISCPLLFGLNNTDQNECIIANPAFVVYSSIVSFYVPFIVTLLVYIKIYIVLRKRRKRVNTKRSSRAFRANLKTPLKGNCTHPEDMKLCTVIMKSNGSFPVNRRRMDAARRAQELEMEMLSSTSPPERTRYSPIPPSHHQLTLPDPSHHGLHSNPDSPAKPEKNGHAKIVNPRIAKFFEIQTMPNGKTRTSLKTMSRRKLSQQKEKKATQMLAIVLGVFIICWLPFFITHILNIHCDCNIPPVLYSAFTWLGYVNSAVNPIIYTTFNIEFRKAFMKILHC

D(1A) dopamine receptor = D(1A) dopamine receptor (Rattus norvegicus, UniProt P18901); assay: Compound was tested for binding affinity against Dopamine receptor D1 using 1 nM [3H]SCH-23390 as the radioligand.
Sequence of D(1A) dopamine receptor (P18901 whole entry): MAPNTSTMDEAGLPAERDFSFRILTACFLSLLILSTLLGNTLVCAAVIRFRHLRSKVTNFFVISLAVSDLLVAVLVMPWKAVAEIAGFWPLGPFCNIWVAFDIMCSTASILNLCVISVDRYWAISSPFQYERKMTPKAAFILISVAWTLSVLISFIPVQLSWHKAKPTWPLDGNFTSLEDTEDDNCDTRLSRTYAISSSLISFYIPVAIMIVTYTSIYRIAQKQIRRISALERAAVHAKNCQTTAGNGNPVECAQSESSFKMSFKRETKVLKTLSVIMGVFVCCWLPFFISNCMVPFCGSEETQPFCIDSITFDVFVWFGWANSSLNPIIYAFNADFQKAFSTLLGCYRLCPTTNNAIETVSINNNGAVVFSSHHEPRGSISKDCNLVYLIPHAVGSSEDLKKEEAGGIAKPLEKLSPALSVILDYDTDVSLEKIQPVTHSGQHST

In the case of `O=C(CSSCC(=O)N[C@@]12CCC(=O)[C@@H]3Oc4c(O)ccc5c4[C@@]31CCN(CC1CCC1)[C@@H]2C5)N[C@@]12CCC(=O)[C@@H]3Oc4c(O)ccc5c4[C@@]31CCN(CC1CCC1)[C@@H]2C5`, the D50 (Mus musculus) is reported as 0.08 nM and the IC50 (Mu-type opioid receptor) is reported as 1.95 nM.

`CN1CCc2cc(Cl)c(O)cc2C(c2cccc(N=C=S)c2)C1` (centres undefined) showed an IC50 (D(2) dopamine receptor) of 978 nM and an IC50 (D(1A) dopamine receptor) of 2.13 nM.
